# From article PMC3517478 (BMC Neurology, 2012)
# Numbering of substitutions follows the chain as printed. “And” between values parts separate entries of the source, which are not always exact repeats. Equal entries are not always repeated.
# What was measured:
# [1] = molecular target: T1, human α1R271K-GlyR expressed in HEK 293 cells (Homo sapiens, UniProt P23415, R299K); settings: R271K
# T1 sequence (P23415 29-457 R299K): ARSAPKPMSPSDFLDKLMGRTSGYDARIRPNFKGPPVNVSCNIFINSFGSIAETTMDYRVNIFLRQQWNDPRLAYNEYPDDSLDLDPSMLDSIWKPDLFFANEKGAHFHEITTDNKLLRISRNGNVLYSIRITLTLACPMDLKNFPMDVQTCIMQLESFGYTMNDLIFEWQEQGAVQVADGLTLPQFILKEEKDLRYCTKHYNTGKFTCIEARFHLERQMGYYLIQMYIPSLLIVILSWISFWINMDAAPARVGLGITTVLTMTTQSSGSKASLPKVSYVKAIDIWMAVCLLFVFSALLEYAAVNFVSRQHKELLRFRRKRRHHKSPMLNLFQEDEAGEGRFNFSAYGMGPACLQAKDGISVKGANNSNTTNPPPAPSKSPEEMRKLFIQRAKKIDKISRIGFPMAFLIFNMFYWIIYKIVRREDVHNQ
# Source text: (§1) Human α1-, α1R271Q-, α1R271L-, α1R271K and α1S267I-GlyR subunits were transiently transfected into human embryonic kidney cells (HEK 293, ATCC, Manassas, USA). The wild type α1-GlyR -cDNA was cloned in pCIS2 (Invitrogen, San Diego, USA) vector and provided by Prof. Heinrich Betz (Max-Planck-Institut für Hirnforschung, Frankfurt am Main, Germany). For the plasmid cDNA of the mutated α1R271Q-, α1R271L-, α1R271K- and α1S267I-GlyR the eukaryotic expression vector pcDNA1amp (Invitrogen, San Diego, USA), under the control of cytomegalovirus promoter, was used. For site-directed mutagenesis, single stranded template cDNA was synthesized from M13 origin of replication and the mutations of arginine residue (R) at position 271 to glutamine (R271Q), leucine (R271L) or lysine (R271K) and mutation of serine residue (S) at position 267 to isoleucine (S267I) were generated using standard procedures. […] Wild type and mutated α1-GlyR subunits efficiently form homomeric receptors in heterologous expression systems.
# (§2) HEK 293 cells were cultured in medium containing HAMS’F-12 (Biochrom, Berlin, Germany), supplemented with 10% fetal bovine serum (FBS, Biochrom, Berlin, Germany), 100 U ml^–1 penicillin and 100μgml^–1 streptomycin (Gibco BRL, Life Technologies, Karlsruhe, Germany) at 37°C in a 5% CO2/ 95% air incubator. For transfection cells were suspended in a buffer containing 50mM K2HPO4 (Fluka BioChemika, Seelze, Germany), 20mMK-acetate (Sigma-Aldrich, Taufkirchen, Germany) and 25mM MgSO4 (Sigma-Aldrich, Taufkirchen, Germany) at pH 7.35. To visualize transfected cells, they were co-transfected with cDNA encoding for enhanced green fluorescent protein (EGFP) contained in the pEGFP-N1 expression vector (Clontech, Palo Alto, USA). The corresponding cDNA (5μg for the GlyR and 2.5μg for EGFP) was added to 400μl of the cell suspension and the mixture was rapidly transferred into the electroporation cuvette. For transfection we used an electroporation device by EquiBio (Kent, UK) and a 4mm aluminum electrode electroporation cuvette (Peqlab, Erlangen, Germany).
# (§3) The phenol derivative 4-chloropropofol ([…]) was provided as pure substance by Prof. Paul M. O’Neill (University of Liverpool, England), prepared as light-protected 1M stock solution in ethanol (EtOH, J.T.Baker, Griesheim, Germany) and stored in glass vessels at −20°C.
# (§4) Drug-containing vials were vigorously vortexed for 30min. Patch electrodes were filled with an intracellular solution of [mM] KCl 140, MgCl2 2, EGTA 11, HEPES 10, glucose 11, CaCl2 1 with pH 7.3, adjusted with 1 M KOH and a bath solution contained [mM] NaCl 162, KCl 5.31, NaHPO4 0.85, KH2PO4 0.22, HEPES 15, glucose 6.11, pH 7.4 adjusted with 1 M NaOH. Osmolarity of both solutions was set at 280–300 mOsmol.
# (§5) Whole-cell experiments were performed at a holding potential of −30 mV with a mean seal resistance of 1 GΩ. […] A fast liquid filament switch technique was used for the application of the agonist, presented in pulses of 2 s duration every 20 s. The liquid filament switch technique is able to exchange the solution passing an outside-out patch or small whole-cells within 1–2 ms. We calculated flow rate of background solution through the chamber with 3,4 ml/min corresponding to 4% of maximal pump rate. With regard to the chamber volume of 100 μl the exchange solution time within the chamber was assessed to approximately […], dependent on cell size accordingly. Piezo-switch and small diameter capillary (ID 0.15 mm) within the measurement chamber promoted the millisecond solution exchange. […] The induced current (I) by this saturating control solution was defined as Icontrol. […] The stability of the seal was controlled during the complete experiment via control of the seal resistance. A variation of 10-20% of the basic value was regarded as tolerable.
# [2] = molecular target: T2, human α1-GlyR (WT) expressed in HEK 293 cells (Homo sapiens, UniProt P23415)
# T2 sequence (P23415 29-457): T1 sequence (P23415 29-457 R299K) with K271R
# Source text: as §1, §2, §3, §4, §5
# [3] = 10-90% of Imax, monoexponential fit
smiles,measurement,setting,value
NCC(=O)O [glycine],Current amplitude [% of mean WT current amplitude] ± SEM,[1],32.0±18%
same,"nH ± SEM (Hill coefficient), glycine activation",[1],1.0±0.5
same,Rise time ± SEM,[1]; [3],14.9 ± 7.7 ms
same,Mean current amplitude ± SEM,[1]; saturating glycine 10 mM,526±97 pA
same,Current amplitude [% of mean WT current amplitude] ± SEM,[2],100.0±26%
same,"nH ± SEM (Hill coefficient), glycine activation",[2],0.8 and 0.8±0.7
same,Rise time ± SEM,[2]; [3],3.7 ms and 3.7 ± 0.8 ms
same,Mean current amplitude ± SEM,[2]; saturating glycine 1 mM,1645±426 pA
